Consider six compounds from ChEMBL document CHEMBL1221321, “Synthesis and properties of macrolones characterized by two ether bonds in the linker” (Bioorg Med Chem, 2010).

The subject of assay [1] is Staphylococcus aureus. Put plainly: Antibacterial activity against inducible resistance to macrolide, licosamide, and streptogramin Staphylococcus aureus 90265/97 by broth microdilution method. In kind it is functional. (Broth dilution looks for growth in wells or tubes with falling amounts of substance.)
In assay [2] the test system is Streptococcus pyogenes. Put plainly: Antibacterial activity against constitutive MLS resistance Streptococcus pyogenes 166 GR-Micro by broth microdilution method. In kind it is functional.
Assay [3] has as its system Streptococcus pyogenes. Put plainly: Antibacterial activity against efflux-mediated macrolide-resistance Streptococcus pyogenes 2 by broth microdilution method. The assay is classed as functional.
The subject of assay [4] is Streptococcus pneumoniae. Put plainly: Antibacterial activity against inducible resistance to macrolide and constitutive resistance to lincosamide Streptococcus pneumoniae 134 GR M by broth microdilution method. The assay is classed as functional.
For assay [5], the system named is Streptococcus pyogenes. Put plainly: Antibacterial activity against inducible resistance to macrolide, licosamide and streptogramin Streptococcus pyogenes 11 by broth microdilution method. In kind it is functional. To be noted: read-out: MIC.
Assay [6] has as its system Streptococcus pneumoniae. Put plainly: Antibacterial activity against constitutive MLS resistance Streptococcus pneumoniae 58 by broth microdilution method. The assay is classed as functional.
Assay [7] relates to Streptococcus pneumoniae. In words: Antibacterial activity against efflux-mediated macrolide-resistance Streptococcus pneumoniae Ci137 by broth microdilution method. The assay is classed as functional. To be noted: read-out: MIC.
Another assay relates to HepG2. In words: Cytotoxicity against human HepG2 cells after 24 hrs by MTS assay. The assay is classed as cell-based. To be noted: HepG2, 24 h.
Another assay deals with THP-1. Put plainly: Cytotoxicity against human THP1 cells after 24 hrs by MTS assay. In kind it is cell-based. The note with it: THP-1, 24 h. Background: Tetrazolium assays rely on reduction of a dye to a coloured formazan, in cell work by metabolically active cells.
The subject of the next assay is Haemophilus influenzae. Put plainly: Antibacterial activity against Haemophilus influenzae ATCC 49247 by broth microdilution method. In kind it is functional.
The test system of assay [8] is Staphylococcus aureus. In words: Antibacterial activity against efflux-mediated macrolide-resistance Staphylococcus aureus PK1 by broth microdilution method. The assay is classed as functional.

pIC50: −log10 of the molar value. In brackets after ≈: the same amount, converted by molar mass.

By pIC50 is commonly meant the negative decadic logarithm of the IC50, by convention in mol/L. Turning to `CC[C@H]1OC(=O)[C@H](C)[C@@H](O[C@H]2C[C@@](C)(OC)[C@@H](OCCCOCCCc3ccc4c(c3)c(=O)c(C(=O)O)cn4CC)[C@H](C)O2)[C@H](C)[C@@H](O[C@@H]2O[C@H](C)C[C@H](N(C)C)[C@H]2O)[C@](C)(O)C[C@@H](C)CN(C)[C@H](C)[C@@H](O)[C@]1(C)O`, the MIC in the assay on Staphylococcus aureus [1], against Streptococcus pyogenes [2], against Streptococcus pyogenes [3], in the assay on Streptococcus pneumoniae [4], in the assay on Streptococcus pyogenes [5] and in the assay on Streptococcus pneumoniae [6] was at most 0.125 µg/mL each time. The values for the MIC with Streptococcus pneumoniae [7], against Haemophilus influenzae and with Staphylococcus aureus [8] were at most 0.125 µg/mL, 1 µg/mL (≈ 0.94 µM) and at most 0.125 µg/mL, respectively. The pIC50 in the assay with HepG2 and in the assay on THP-1 was below 4.30 in each case.
Consider `CC[C@H]1OC(=O)[C@H](C)[C@@H](O[C@H]2C[C@@](C)(OC)[C@@H](OCCCOCCCc3cc4c5c(c3)c(=O)c(C(=O)O)cn5C(C)(C)OC4)[C@H](C)O2)[C@H](C)[C@@H](O[C@@H]2O[C@H](C)C[C@H](N(C)C)[C@H]2O)[C@](C)(O)C[C@@H](C)CN(C)[C@H](C)[C@@H](O)[C@]1(C)O`, for which the MIC against Staphylococcus aureus [1], in the assay with Streptococcus pyogenes [2], against Streptococcus pyogenes [3], in the assay with Streptococcus pneumoniae [4], with Streptococcus pyogenes [5] and against Streptococcus pneumoniae [6] was at most 0.125 µg/mL throughout. The MIC with Streptococcus pneumoniae [7] is at most 0.125 µg/mL; against Haemophilus influenzae, 1 µg/mL (≈ 0.904 µM); with Staphylococcus aureus [8], at most 0.125 µg/mL. The negative logarithm of the IC50 (pIC50) with HepG2 is below 4.30; in the assay on THP-1 it was 4.40.
As for `CC[C@H]1OC(=O)[C@H](C)[C@@H](O[C@H]2C[C@@](C)(OC)[C@@H](OCCCOCCCCc3cc4c5c(c3)c(=O)c(C(=O)O)cn5C(C)(C)CO4)[C@H](C)O2)[C@H](C)[C@@H](O[C@@H]2O[C@H](C)C[C@H](N(C)C)[C@H]2O)[C@](C)(O)C[C@@H](C)CN(C)[C@H](C)[C@@H](O)[C@]1(C)O`, the MIC against Staphylococcus aureus [1] was at most 0.125 µg/mL; against Streptococcus pyogenes [2] it was 0.5 µg/mL (≈ 0.446 µM); with Streptococcus pyogenes [3], at most 0.125 µg/mL; in the assay with Streptococcus pneumoniae [4] it was 0.5 µg/mL (≈ 0.446 µM); in the assay with Streptococcus pyogenes [5], at most 0.125 µg/mL; in the assay on Streptococcus pneumoniae [6], at most 0.125 µg/mL. Further, the MIC was at most 0.125 µg/mL in the assay with Streptococcus pneumoniae [7], 1 µg/mL (≈ 0.893 µM) against Haemophilus influenzae and at most 0.125 µg/mL against Staphylococcus aureus [8]. Further, the pIC50 with HepG2 was 4.34; with THP-1, 4.96.
Take `CCCCn1cc(C(=O)O)c(=O)c2cc(CCCOCCCO[C@H]3[C@H](C)O[C@@H](O[C@H]4[C@H](C)[C@@H](O[C@@H]5O[C@H](C)C[C@H](N(C)C)[C@H]5O)[C@](C)(O)C[C@@H](C)CN(C)[C@H](C)[C@@H](O)[C@](C)(O)[C@@H](CC)OC(=O)[C@@H]4C)C[C@@]3(C)OC)ccc21`: the MIC in the assay on Staphylococcus aureus [1], with Streptococcus pyogenes [2], against Streptococcus pyogenes [3], in the assay on Streptococcus pneumoniae [4], in the assay on Streptococcus pyogenes [5] and in the assay with Streptococcus pneumoniae [6] was at most 0.125 µg/mL in each case. In addition, the results for the MIC with Streptococcus pneumoniae [7], with Haemophilus influenzae and against Staphylococcus aureus [8] were at most 0.125 µg/mL, 1 µg/mL (≈ 0.915 µM) and at most 0.125 µg/mL, respectively. The values for the pIC50 in the assay on HepG2 and in the assay on THP-1 were 4.31 and 4.57, respectively.
On to `CC[C@H]1OC(=O)[C@H](C)[C@@H](O[C@H]2C[C@@](C)(OC)[C@@H](OCCCOCCCc3ccc4c(c3)c(=O)c(C(=O)O)cn4C3CC3)[C@H](C)O2)[C@H](C)[C@@H](O[C@@H]2O[C@H](C)C[C@H](N(C)C)[C@H]2O)[C@](C)(O)C[C@@H](C)CN(C)[C@H](C)[C@@H](O)[C@]1(C)O`, for which the MIC in the assay on Staphylococcus aureus [1], in the assay on Streptococcus pyogenes [2], against Streptococcus pyogenes [3], in the assay with Streptococcus pneumoniae [4], with Streptococcus pyogenes [5] and against Streptococcus pneumoniae [6] was at most 0.125 µg/mL throughout. Moreover, the MIC was at most 0.125 µg/mL in the assay on Streptococcus pneumoniae [7], 2 µg/mL (≈ 1.86 µM) against Haemophilus influenzae and at most 0.125 µg/mL against Staphylococcus aureus [8]. The pIC50 with HepG2 was below 4.30; in the assay with THP-1, 4.32.
As to `CC[C@H]1OC(=O)[C@H](C)[C@@H](O[C@H]2C[C@@](C)(OC)[C@@H](OCCCOCCCCc3ccc4c(c3)c(=O)c(C(=O)O)cn4C3CC3)[C@H](C)O2)[C@H](C)[C@@H](O[C@@H]2O[C@H](C)C[C@H](N(C)C)[C@H]2O)[C@](C)(O)C[C@@H](C)CN(C)[C@H](C)[C@@H](O)[C@]1(C)O`, the MIC with Staphylococcus aureus [1], with Streptococcus pyogenes [2], against Streptococcus pyogenes [3], in the assay with Streptococcus pneumoniae [4], in the assay on Streptococcus pyogenes [5] and in the assay with Streptococcus pneumoniae [6] was at most 0.125 µg/mL each time. For the same compound, the MIC with Streptococcus pneumoniae [7] was at most 0.125 µg/mL; in the assay with Haemophilus influenzae, 0.5 µg/mL (≈ 0.459 µM); against Staphylococcus aureus [8], at most 0.125 µg/mL. Besides, the pIC50 with HepG2 was 4.33; in the assay on THP-1, 4.70.
